Experimental data from patent US11524012B1, “Quinolone analogs and their salts, compositions, and method for their use” (Senhwa Biosciences, Inc., priority 2018, dated 2022).

Tests used:
[1] = system: DLD-1 Parental (HD PAR-008); assay: Anti-proliferation assay 144 h (ATPlite); format: cell-based; settings: Homo sapiens, 144 h proliferation assay, * = value should be considered as approximate, read-out: Relative IC50, DLD-1 Parental
Method: (§1) The sensitivity of DLD-1 Parental and BRCA2−/− isogenic cell lines Compound I and Compounds 1 and 7-10 were evaluated in 144 h proliferations assays. Cells were seeded into 384-well plates in McCoy's 5A medium supplemented with 10% FBS at the seeding densities indicated below and allowed to adhere overnight prior to addition of compound or vehicle control. Compounds were weighed out and stock solutions in DMSO were made immediately prior to treatment of cells. Serial dilutions of compounds were prepared in DMSO and diluted in media before being added to cells in quadruplicate to give the final concentrations indicated on graphs (10 μM top concentration, 9-point semi-log dilution series, 0.2% DMSO final concentration for all treatments). Cells were incubated with compounds for 144 h at 37° C., 5% C02 in a humidified atmosphere. At the assay endpoint, ATPlite (Perkin Elmer) reagent was added at a volume equal to the volume of cell culture medium already present in each well and the plates processed as per the manufacturer's instructions. Media only background values were subtract and ted and the data was analyzed using a 4-parameter logistic equation in GraphPad Prism. DLD-1 Parental (HD PAR-008) DLD-1 BRCA2−/− (HD 105-007) used.

[2] = system: DLD-1 BRCA2−/− (HD 105-007); assay: Anti-proliferation assay 144 h (ATPlite); format: cell-based; settings: for Fold Sensitivity of BRCA2^-/- line: BRCA2^-/- line relative to DLD-1 Parental line; for Fold Sensitivity of BRCA2^-/- line / IC50: 144 h proliferation assay; for IC50: Homo sapiens, DLD-1, ATPlite, read-out: Relative IC50, DLD-1 BRCA2^-/-
Method: as §1

[3] = Stability of stock solutions and of spiked human plasma (LC/MS/MS method validation); format: physicochemical; settings: refrigeration (2° C. to 8° C.)
Method: A reference standard stock solution of Compound I was prepared by weighing the reference standard and dissolving it in a solution of 50:50:0.1 (v/v) mixture of ACN:deionized water:formic acid, followed by vortex-mixing and sonication. This stock solution was used for preparation of the calibration standards. Another stock solution of Compound I was prepared following the same procedure and was used for preparation of the QC samples. Both stock solutions were prepared previously and stored at refrigeration (2° C. to 8° C.) prior to use on the day of assay. […] Both solutions were used within the established stability timeframe.
The internal standard stock solution was previously prepared by weighing Compound A (2-(4-Methyl-piperazin-1-yl)-5-oxo-5H-7-thia-1,11b-diaza-benzo[c]fluorene-6-carboxylic acid (5-methyl-pyrazin-2-ylmethyl)-amide) and dissolving it in a solution of 50:50:0.1 (v/v) mixture of ACN:deionized water:formic acid. This stock solution was stored at refrigeration (2° C. to 8° C.) prior to use. […] This solution was used within the established stability timeframe. On the day of assay, this solution was further diluted with a solution of 50:50:0.1 (v/v) mixture of ACN:deionized water:formic acid into a solution for spiking.
This assay method was based on a nominal quantitation range of 5.00 ng/mL to 5000 ng/mL. Validation results met their acceptance criteria for the assessments of calibration range, assay accuracy and precision, hemolysis matrix effects, lipidemic matrix effects, selectivity and specificity, dilution integrity, and assay ruggedness with respect to changing analysts and instrument, and over the run time anticipated for a prospective test sample run. Chromatographic carryover was not observed. A 6-minute assay run time was validated. […] (−63° C. to −77° C.) and following 4 cycles of freeze/thaw.

Compound	IC50 [2] [µM]	stock solution stable (50:50:0.1 ACN:deionized water:formic acid) [3] [days]	IC50 [1] [µM]	Fold Sensitivity of BRCA2^-/- line [2]	sensitivity of the BRCA2 null line relative to the parental line (in words) ([2]; 144 h)
Cc1cnc(CNC(=O)c2c(=O)c3ccc(N4CCCNCC4)nc3n3c2sc2ccccc23)cn1 [Compound 7, 2-(1,4-diazepan-1-yl)-N-((5-methylpyrazin-2-yl)methyl)-5-oxo-5H-benzo[4,5]thiazolo[3,2-a][1,8]naphthyridine-6-carboxamide]	0.56		~12	21	
Cc1cnc(CNC(=O)c2c(=O)c3ccc(N4CCN(C)CC4)nc3n3c2sc2ccccc23)cn1 [Compound A, 2-(4-Methyl-piperazin-1-yl)-5-oxo-5H-7-thia-1,11b-diaza-benzo[c]fluorene-6-carboxylic acid (5-methyl-pyrazin-2-ylmethyl)-amide, reference compound]		384			
CN1CCCN(c2ccc3c(=O)c(C(N)=O)c4sc5ccccc5n4c3n2)CC1 [Compound 1, 2-(4-methyl-1,4-diazepan-1-yl)-5-oxo-5H-benzo[4,5]thiazolo[3,2-a][1,8]naphthyridine-6-carboxamide]	0.0047		1.88	400	extremely sensitive

Second part, led by results:

IC50 [2] [µM]	stock solution stable (50:50:0.1 ACN:deionized water:formic acid) [3] [days]	Compound	IC50 [1] [µM]	Fold Sensitivity of BRCA2^-/- line [2]	sensitivity of the BRCA2 null line relative to the parental line (in words) ([2]; 144 h)
0.0072		CN1CCCN(c2ccc3c(=O)c(C(=O)NCCCN4CCCCCC4=O)c4sc5ccccc5n4c3n2)CC1 [Compound 8, 2-(4-methyl-1,4-diazepan-1-yl)-N-(3-(2-oxoazepan-1-yl)propyl)-5-oxo-5H-benzo[4,5]thiazolo[3,2-a][1,8]naphthyridine-6-carboxamide]	0.53	74	
1.59		Cc1cnc(CNC(=O)c2c(=O)c3ccc(N4CCC[N+](C)([O-])CC4)nc3n3c2sc2ccccc23)cn1 (centres unmarked) [Compound 9, 2-(4-methyl-4-oxidodiazepan-4-ium-1-yl)-N-((5-methylpyrazin-2-yl)methyl)-5-oxo-5H-benzo[4,5]thiazolo[3,2-a][1,8]naphthyridine-6-carboxamide]	~8.78	5.5	
0.62		Cc1cnc(C(=O)NC(=O)c2c(=O)c3ccc(N4CCCN(C)CC4)nc3n3c2sc2ccccc23)cn1 [Compound 10, 2-(4-methyl-1,4-diazepan-1-yl)-N-((5-methylpyrazin-2-yl)carbonyl)-5-oxo-5H-benzo[4,5]thiazolo[3,2-a][1,8]naphthyridine-6-carboxamide]	1.58	2.5	
